Test results taken from US20250127805A1, “ALCOHOLIC FORMULATION WITH A MIXTURE OF ALKALOIDS, PRENOL LIPIDS AND FLAVONOIDS” (PONTIFICIA UNIVERSIDAD JAVERIANA, priority 2023, published 2025).

System: cancer cell line type 3 model
Assay: Circulating blasts, tumor development and survival in type 3 model
Type: in vivo
Settings: type 3 cancer cell line
From the text: FIG. 12. Frequency circulating blasts in cancer cell line type 3 model.

COc1cccc2c1C(=O)c1c(O)c3c(c(O)c1C2=O)C[C@@](O)(C(=O)CO)C[C@@H]3O[C@H]1C[C@H](N)[C@H](O)[C@H](C)O1 [doxorubicin]
tumor development: decrease in tumor development
